In US9776972B2, “Pyrazole derivatives as arginine methyltransferase inhibitors and uses thereof” (priority 2013, dated 2017):
Like-named read-outs stand apart in the source and are kept apart here.

How the values were obtained:
human PRMT6 = biological target: T1, human PRMT6 (Homo sapiens, UniProt Q96LA8); test: PRMT6 Biochemical Assay (3H-SAM Flashplate, peptide substrate)
T1 construct: Flag-PRMT6-His; made in house; host or cells: HEK 293F cells (BacMam baculovirus)
Method in brief: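 Flag-PRMT6-His, expressed in mammalian cells from a BacMam vector, was preincubated with compound for 30 min at room temperature in Bicine pH 7.6 buffer with TCEP, BSG and Tween 20. Reactions were started with ³H-SAM and a biotinylated histone H4 36-50 peptide, then stopped with cold SAM (400 uM final). Labeled peptide was captured on streptavidin Flashplates, counted, and fitted to a 3- or 4-parameter curve.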

human PRMT1 = biological target: T2, human PRMT1 (Homo sapiens, UniProt Q99873); test: PRMT1 Biochemical Assay (3H-SAM Flashplate, peptide substrate)
T2 construct: GST-tagged PRMT1; made in house; host or cells: High Five insect cells (baculovirus)
T2 sequence (Q99873 with tags, fused parts or gaps): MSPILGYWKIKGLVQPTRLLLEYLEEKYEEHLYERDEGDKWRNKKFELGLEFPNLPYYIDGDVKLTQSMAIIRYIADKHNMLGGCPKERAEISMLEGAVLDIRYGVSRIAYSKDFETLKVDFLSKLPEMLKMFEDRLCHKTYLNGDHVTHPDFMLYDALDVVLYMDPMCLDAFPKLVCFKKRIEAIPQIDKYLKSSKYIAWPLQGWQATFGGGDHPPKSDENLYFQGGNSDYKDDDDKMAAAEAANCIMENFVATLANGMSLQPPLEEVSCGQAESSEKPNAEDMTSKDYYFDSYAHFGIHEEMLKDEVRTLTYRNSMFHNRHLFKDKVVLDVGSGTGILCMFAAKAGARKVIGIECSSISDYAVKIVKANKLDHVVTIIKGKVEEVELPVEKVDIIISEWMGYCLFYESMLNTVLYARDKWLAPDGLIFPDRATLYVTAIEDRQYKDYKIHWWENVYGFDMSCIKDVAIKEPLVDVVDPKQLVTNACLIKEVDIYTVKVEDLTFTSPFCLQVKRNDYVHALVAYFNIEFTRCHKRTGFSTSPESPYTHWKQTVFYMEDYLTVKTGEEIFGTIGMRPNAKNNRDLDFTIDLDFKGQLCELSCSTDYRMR
Method in brief: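 GST-tagged PRMT1 from baculovirus-infected cells, preincubated with compounds 30 min at room temperature in 20 mM Bicine pH 7.6, 1 mM TCEP, 0.005% BSG, 0.002% Tween 20. Reaction started with ³H-SAM plus biotinylated peptide, stopped with 300 µM cold SAM.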

[1] = Biochemical IC50 PRMT6, single experiment or average of multiple experiments
[2] = single experiment or average of multiple experiments

T1 sequence (Q96LA8 with tags, fused parts or gaps): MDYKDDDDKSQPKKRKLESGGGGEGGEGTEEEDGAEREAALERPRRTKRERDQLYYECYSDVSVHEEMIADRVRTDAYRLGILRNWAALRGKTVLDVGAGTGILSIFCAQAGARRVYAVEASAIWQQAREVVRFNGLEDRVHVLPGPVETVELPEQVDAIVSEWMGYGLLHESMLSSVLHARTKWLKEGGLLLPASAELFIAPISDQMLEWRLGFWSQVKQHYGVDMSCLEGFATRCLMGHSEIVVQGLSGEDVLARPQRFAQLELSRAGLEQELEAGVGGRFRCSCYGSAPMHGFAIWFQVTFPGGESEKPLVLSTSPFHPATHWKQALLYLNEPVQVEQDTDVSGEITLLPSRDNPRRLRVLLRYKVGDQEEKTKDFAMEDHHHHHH

SMILES	IC50 (human PRMT6; Biochemical IC50 PRMT6)	IC50 (human PRMT6; [1])	IC50 (human PRMT1)	IC50 (human PRMT1; [2])	IC50 (human PRMT6; single experiment or average of multiple experiments, read-out: Biochemical IC50 PRMT6)
CNCCN(C)Cc1c[nH]nc1-c1ccc(OCC2CCOC2)cc1 (stereo not drawn) [Compound 285]	< 0.1 µM	0.0332 µM	< 0.1 µM	0.0148 µM	
CNCCN(C)Cc1c[nH]nc1-c1ccc(OC(CO)C(C)C)cc1 (stereo not drawn) [Compound 286]	< 0.1 µM		< 0.1 µM	0.0265 µM	0.0321 µM
CNCCN(C)Cc1c[nH]nc1-c1ccc(OCC2CC2)cc1 [Compound 288]	< 0.1 µM	0.0143 µM	< 0.1 µM	0.00897 µM	
CNCCN(C)Cc1c[nH]nc1-c1ccc(OCCOC)cc1 [Compound 289]	< 0.1 µM	0.0365 µM	< 0.1 µM	0.0211 µM	
CCC(CC)Oc1ccc(-c2n[nH]cc2CN(C)CCNC)cc1 [Compound 290]	< 0.1 µM	0.0115 µM	< 0.1 µM	0.00828 µM	
CNCCN(C)Cc1c[nH]nc1-c1ccc(OC2CCOCC2)c(F)c1 [Compound 291]	< 0.1 µM	0.0277 µM	< 0.1 µM	0.0156 µM	
CNCCN(C)Cc1c[nH]nc1-c1ccc(OC2CCOCC2)c(Cl)c1 [Compound 292]	< 0.1 µM	0.0832 µM	< 0.1 µM	0.0273 µM	
CNCCN(C)Cc1c[nH]nc1-c1ccc(OC2CC2)cc1 [Compound 293]	< 0.1 µM	0.0288 µM	< 0.1 µM	0.0135 µM	
CNCCN(C)Cc1c[nH]nc1-c1ccc(NC(C)C)cc1 [Compound 295]	< 0.1 µM	0.0649 µM	< 0.1 µM	0.0287 µM	
CNCCN(C)Cc1c[nH]nc1-c1ccc(NCC(C)C)cc1 [Compound 296]	< 0.1 µM	0.033 µM	< 0.1 µM	0.0288 µM	
CNCCN(C)Cc1c[nH]nc1-c1ccc(Oc2ccccc2)c(F)c1 [Compound 297]	< 0.1 µM	0.0121 µM	< 0.1 µM	0.00337 µM	
CNCCN(C)Cc1c[nH]nc1-c1ccc(OCC2CC2)c(F)c1 [Compound 298]	< 0.1 µM	0.0269 µM	< 0.1 µM	0.00787 µM	
CNCCN(C)Cc1c[nH]nc1-c1ccc(OC2CCC(O)CC2)cc1 (stereo not drawn) [Compound 299]	< 0.1 µM	0.0159 µM	< 0.1 µM	0.0198 µM	
CNCCN(C)Cc1c[nH]nc1-c1ccc(N(C)C(C)C)cc1 [Compound 300]	0.101 to 1 µM	0.177 µM	< 0.1 µM	0.0279 µM	
CNCCN(C)Cc1c[nH]nc1-c1ccc(OC2CC2)c(F)c1 [Compound 301]	< 0.1 µM	0.0253 µM	< 0.1 µM	0.00643 µM	
CNCCN(C)Cc1c[nH]nc1-c1ccc(Oc2ncccn2)cc1 [Compound 302]	< 0.1 µM	0.0497 µM	< 0.1 µM	0.0334 µM	
CNCCN(C)Cc1c[nH]nc1-c1ccc(Oc2cncnc2)cc1 [Compound 303]	< 0.1 µM	0.024 µM	< 0.1 µM	0.0279 µM	
CNCCN(C)Cc1c[nH]nc1-c1ccc(OC2CCC2)cc1 [Compound 304]	< 0.1 µM	0.0241 µM	< 0.1 µM	0.00659 µM	
CNCCN(C)Cc1c[nH]nc1-c1ccc(OC2CCC2)c(F)c1 [Compound 305]	< 0.1 µM	0.0276 µM	< 0.1 µM	0.00636 µM	
CNCCN(C)Cc1c[nH]nc1-c1ccc(OCC(C)C)cc1 [Compound 306]	< 0.1 µM	0.0233 µM	< 0.1 µM	0.0071 µM	
CNCCN(C)Cc1c[nH]nc1-c1ccc(OCC2CCC2)cc1 [Compound 307]	< 0.1 µM	0.0197 µM	< 0.1 µM	0.00589 µM	
CC[C@@H](C)Oc1ccc(-c2n[nH]cc2CN(C)CCNC)cc1 [Compound 308]	< 0.1 µM	0.0131 µM	< 0.1 µM	0.00707 µM	
CC[C@H](C)Oc1ccc(-c2n[nH]cc2CN(C)CCNC)cc1 [Compound 309]	< 0.1 µM	0.0152 µM	< 0.1 µM	0.0067 µM	
CCC(COC)Oc1ccc(-c2n[nH]cc2CN(C)CCNC)cc1 (stereo not drawn) [Compound 310]	< 0.1 µM	0.0324 µM	< 0.1 µM	0.0145 µM	
CNCCN(C)Cc1c[nH]nc1-c1ccc(OC(COC)C(C)C)cc1 (stereo not drawn) [Compound 311]	< 0.1 µM	0.0503 µM	< 0.1 µM	0.0216 µM	
CNCCN(C)Cc1c[nH]nc1-c1ccc(Oc2ccncn2)cc1 [Compound 312]	< 0.1 µM	0.0195 µM	< 0.1 µM	0.0116 µM	
CNCCN(C)Cc1c[nH]nc1-c1ccc(C(C)(C)COC)cc1 [Compound 313]	0.101 to 1 µM	0.113 µM	< 0.1 µM	0.0349 µM	
CNCCN(C)Cc1c[nH]nc1-c1ccc(OC(COC)CC(C)C)cc1 (stereo not drawn) [Compound 314]	< 0.1 µM	0.0386 µM	< 0.1 µM	0.0182 µM	
CNCCN(C)Cc1c[nH]nc1-c1ccc(OC2CC(OC)C2)cc1 (stereo not drawn) [Compound 315]	< 0.1 µM	0.0106 µM	< 0.1 µM	0.0235 µM	
CNCCN(C)Cc1c[nH]nc1-c1ccc(OC(COC)COC)cc1 [Compound 316]	< 0.1 µM	0.0967 µM	< 0.1 µM	0.0175 µM	
